ChEMBL document CHEMBL1201862, “PubChem BioAssay data set” (2004)
Activity calls are given as the source filed them.

Experiments:
[1] = Luminescence Cell-Based Dose Response HTS to Identify Inhibitors of 5'UTR Stem-Loop Driven Prion Protein mRNA Translation in H4 Neuroglioblastoma Cells. [Related pubchem assays: 1827 (Project Summary), 1813 (Primary HTS)]; assay type: functional
[2] = luciferase reporter signal suppression in cells – H4 neuroglioma cells, luminescence, dose response (AID 1990); assay type: functional, cell-based
[3] = Trypanosoma cruzi growth suppression in host cells – NIH3T3 host cells, beta-gal luminescence, confirmation (AID 2044); assay type: functional, cell-based;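 note: intracellular parasites grown in NIH/3T3 mouse fibroblasts as host cells; luminescent beta-galactosidase reporter signal from transgenic T. cruzi replicating inside host cells; inhibitors lower the luminescence signal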
[4] = system: Jurkat; test: SAR Analysis of small molecule inhibitors of T-cell specific antigen receptor-induced NF-kB activation in a Jurkat cell line using a luminescence assay - Set 2. [Related pubchem assays (depositor defined):AID435003, AID435012, AID465]; assay type: functional, cell-based; settings: Homo sapiens
[5] = system: HEK293; test: SAR Analysis of small molecule inhibitors of T-cell specific antigen receptor-induced NF-kB activation in a HEK-293T cell line using a luminescence assay - Set 2. [Related pubchem assays (depositor defined):AID435003, AID435012, AID489026]; assay type: functional, cell-based; settings: Homo sapiens
[6] = target: Beta-2 adrenergic receptor (Homo sapiens, UniProt P07550); test: ADRB2 activation measured by internalization – cell-based, FAP fluorogen, flow cytometry, cherry pick 1, dose response (AID 588763); assay type: functional
[7] = system: HEK293; test: HEK293T cell viability loss, resazurin readout – resazurin fluorescence, cytotoxicity control for NF-kB activator project, SAR follow-up (AID 493251); assay type: functional, cell-based; settings: Homo sapiens
[8] = target: T1, Microphthalmia-associated transcription factor (Homo sapiens, UniProt O75030); test: reducers of TRPM1 reporter luminescence, concentration series – cell-based, SK-MEL-5, cherry-picked, set 3, MITF inhibitor project, dose response (AID 493073); assay type: functional;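 note: SK-MEL-5 melanoma cells with luciferase driven by the MITF target TRPM1 promoter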
T1 sequence (O75030 whole entry): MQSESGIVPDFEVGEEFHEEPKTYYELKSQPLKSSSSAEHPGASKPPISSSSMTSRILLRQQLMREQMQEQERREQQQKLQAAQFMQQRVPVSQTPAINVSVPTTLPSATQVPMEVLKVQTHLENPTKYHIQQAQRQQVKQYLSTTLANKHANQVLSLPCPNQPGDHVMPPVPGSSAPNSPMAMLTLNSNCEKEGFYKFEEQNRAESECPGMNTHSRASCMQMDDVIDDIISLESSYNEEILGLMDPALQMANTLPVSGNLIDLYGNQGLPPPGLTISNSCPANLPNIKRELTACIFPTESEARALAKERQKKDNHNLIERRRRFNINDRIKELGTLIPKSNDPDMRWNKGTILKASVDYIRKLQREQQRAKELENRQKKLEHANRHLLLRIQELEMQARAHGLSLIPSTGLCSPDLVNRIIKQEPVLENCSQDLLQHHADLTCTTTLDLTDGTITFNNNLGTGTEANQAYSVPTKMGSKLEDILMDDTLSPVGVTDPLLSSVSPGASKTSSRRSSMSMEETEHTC

[9] = alpha-synuclein stem-loop luciferase translation blockers – H4 neuroglioma cells, luminescence, confirmation (AID 1988); assay type: functional, cell-based
[10] = NIH3T3 cell viability loss – ATP luminescence, mouse fibroblasts, counter-screen, dose response (AID 2010); assay type: functional, cell-based;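 note: cells exposed to compound for about 90 hours before reading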
[11] = target: Aurora kinase B (Homo sapiens, UniProt Q96GD4); assay type: functional
[12] = target: Aurora kinase A (Homo sapiens, UniProt O14965); assay type: functional;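 note: value from the Navigating the Kinome kinase panel profiling, panel entry STK6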
[13] = system: Escherichia coli; test: microbe, parasite or virus in culture
[14] = target: Proto-oncogene tyrosine-protein kinase receptor Ret (Homo sapiens, UniProt P07949); assay type: functional;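 note: measured within a kinome-wide profiling panel, RET as the panel member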
[15] = target: DNA dC->dU-editing enzyme APOBEC-3A (Homo sapiens, UniProt P31941); test: SAR analysis of small molecule inhibitors of APOBEC3A DNA Deaminase via a fluorescence-based single-stranded DNA deaminase assay.; assay type: functional; settings: read-out: IC50_Mean
[16] = target: DNA dC->dU-editing enzyme APOBEC-3G (Homo sapiens, UniProt Q9HC16); test: inhibition of APOBEC3G ssDNA deamination – biochemical, fluorescence, single-stranded DNA substrate, SAR follow-up (AID 602136); assay type: functional; settings: read-out: IC50_Mean
[17] = target: Melanin-concentrating hormone receptor 1 (Homo sapiens, UniProt Q99705); test: Late-stage fluorescence-based counterscreen for antagonists of the G-protein coupled receptor 7 (GPR7): cell-based dose response assay to identify antagonists of the melanin-concentrating hormone receptor 1 (MCHR1) Set 6.; assay type: functional
[18] = target: T2, Neuropeptides B/W receptor type 1 (Homo sapiens, UniProt P48145); test: human NPBW1 receptor blockade, IC50 – cell-based, fluorescence, dose response, set 6, late-stage follow-up (AID 588583); assay type: functional
T2 sequence (P48145 whole entry): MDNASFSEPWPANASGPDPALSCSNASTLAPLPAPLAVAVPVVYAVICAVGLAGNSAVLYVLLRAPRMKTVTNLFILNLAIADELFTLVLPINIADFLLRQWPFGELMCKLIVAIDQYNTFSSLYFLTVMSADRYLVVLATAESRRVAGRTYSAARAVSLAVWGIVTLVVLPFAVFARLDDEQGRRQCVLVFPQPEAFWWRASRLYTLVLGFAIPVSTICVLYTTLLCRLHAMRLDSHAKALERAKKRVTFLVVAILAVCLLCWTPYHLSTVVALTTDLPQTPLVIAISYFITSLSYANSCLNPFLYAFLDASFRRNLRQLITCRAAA

[19] = target: T3, Endoribonuclease toxin MazF (Escherichia coli K-12, UniProt P0AE70); test: substrate-only fluorescence increase artefacts – biochemical, single-stranded RNase substrate, counter-screen for MazEF activator project, dose response (AID 588502); assay type: functional
T3 sequence (P0AE70 whole entry): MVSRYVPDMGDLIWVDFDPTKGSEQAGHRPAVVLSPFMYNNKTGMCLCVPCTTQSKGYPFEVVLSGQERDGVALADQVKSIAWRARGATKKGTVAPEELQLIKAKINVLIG

[20] = target: T3, Endoribonuclease toxin MazF; test: activation of MazEF endoribonuclease cleavage – biochemical, fluorescence, single-stranded RNA substrate, uHTS hits, dose response (AID 588481); assay type: functional

Chain of Melanin-concentrating hormone receptor 1 (Q99705 whole entry): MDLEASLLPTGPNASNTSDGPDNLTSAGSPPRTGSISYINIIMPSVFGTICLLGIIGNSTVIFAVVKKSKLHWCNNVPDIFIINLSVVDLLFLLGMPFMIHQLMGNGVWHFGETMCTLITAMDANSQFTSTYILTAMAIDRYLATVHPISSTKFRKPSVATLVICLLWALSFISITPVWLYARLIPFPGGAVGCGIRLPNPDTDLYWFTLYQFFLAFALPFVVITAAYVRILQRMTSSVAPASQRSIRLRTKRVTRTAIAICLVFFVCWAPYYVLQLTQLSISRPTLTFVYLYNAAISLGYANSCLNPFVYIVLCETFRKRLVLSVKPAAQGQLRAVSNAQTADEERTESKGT
Chain of Proto-oncogene tyrosine-protein kinase receptor Ret (P07949 whole entry): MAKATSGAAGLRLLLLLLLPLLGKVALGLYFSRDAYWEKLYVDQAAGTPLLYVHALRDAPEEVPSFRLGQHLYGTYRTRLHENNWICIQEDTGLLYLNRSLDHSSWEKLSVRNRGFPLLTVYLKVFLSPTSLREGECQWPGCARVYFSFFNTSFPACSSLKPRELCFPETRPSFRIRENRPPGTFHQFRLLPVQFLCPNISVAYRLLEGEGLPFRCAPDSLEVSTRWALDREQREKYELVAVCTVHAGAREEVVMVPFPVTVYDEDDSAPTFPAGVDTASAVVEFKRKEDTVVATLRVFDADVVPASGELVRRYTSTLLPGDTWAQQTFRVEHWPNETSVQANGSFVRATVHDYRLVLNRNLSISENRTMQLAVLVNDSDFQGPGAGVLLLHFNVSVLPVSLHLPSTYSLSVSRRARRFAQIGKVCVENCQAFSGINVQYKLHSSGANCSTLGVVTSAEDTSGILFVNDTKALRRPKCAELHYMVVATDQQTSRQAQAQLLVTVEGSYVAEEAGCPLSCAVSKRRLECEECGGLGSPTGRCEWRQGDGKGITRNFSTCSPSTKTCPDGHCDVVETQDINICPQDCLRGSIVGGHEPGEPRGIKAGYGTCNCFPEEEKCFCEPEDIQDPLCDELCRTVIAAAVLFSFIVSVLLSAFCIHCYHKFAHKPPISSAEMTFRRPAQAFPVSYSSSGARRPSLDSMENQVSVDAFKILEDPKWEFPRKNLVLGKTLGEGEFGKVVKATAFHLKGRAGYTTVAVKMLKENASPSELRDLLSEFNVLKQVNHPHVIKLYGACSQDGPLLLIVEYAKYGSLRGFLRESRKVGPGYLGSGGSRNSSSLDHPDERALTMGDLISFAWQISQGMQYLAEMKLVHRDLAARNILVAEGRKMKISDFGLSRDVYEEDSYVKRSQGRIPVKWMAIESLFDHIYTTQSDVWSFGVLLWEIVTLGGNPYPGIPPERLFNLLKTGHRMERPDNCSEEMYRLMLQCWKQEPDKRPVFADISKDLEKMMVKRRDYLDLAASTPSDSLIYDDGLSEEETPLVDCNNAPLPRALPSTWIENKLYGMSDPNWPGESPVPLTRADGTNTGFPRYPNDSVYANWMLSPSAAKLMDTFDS
Chain of Aurora kinase B (Q96GD4 whole entry): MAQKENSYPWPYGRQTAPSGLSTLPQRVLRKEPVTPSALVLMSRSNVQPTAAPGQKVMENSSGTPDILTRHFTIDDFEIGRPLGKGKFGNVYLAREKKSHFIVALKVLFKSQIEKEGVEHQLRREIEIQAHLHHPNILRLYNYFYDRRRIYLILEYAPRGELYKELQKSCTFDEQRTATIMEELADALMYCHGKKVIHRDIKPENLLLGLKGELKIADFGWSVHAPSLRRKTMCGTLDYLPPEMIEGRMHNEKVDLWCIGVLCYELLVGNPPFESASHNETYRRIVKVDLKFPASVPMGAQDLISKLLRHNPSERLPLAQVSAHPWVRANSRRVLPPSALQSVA
Chain of DNA dC->dU-editing enzyme APOBEC-3A (P31941 whole entry): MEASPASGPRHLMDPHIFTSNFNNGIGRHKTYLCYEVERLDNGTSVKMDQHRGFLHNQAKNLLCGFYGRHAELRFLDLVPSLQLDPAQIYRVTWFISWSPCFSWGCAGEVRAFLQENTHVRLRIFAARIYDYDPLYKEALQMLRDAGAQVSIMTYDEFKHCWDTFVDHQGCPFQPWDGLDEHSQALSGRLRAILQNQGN
Chain of Beta-2 adrenergic receptor (P07550 whole entry): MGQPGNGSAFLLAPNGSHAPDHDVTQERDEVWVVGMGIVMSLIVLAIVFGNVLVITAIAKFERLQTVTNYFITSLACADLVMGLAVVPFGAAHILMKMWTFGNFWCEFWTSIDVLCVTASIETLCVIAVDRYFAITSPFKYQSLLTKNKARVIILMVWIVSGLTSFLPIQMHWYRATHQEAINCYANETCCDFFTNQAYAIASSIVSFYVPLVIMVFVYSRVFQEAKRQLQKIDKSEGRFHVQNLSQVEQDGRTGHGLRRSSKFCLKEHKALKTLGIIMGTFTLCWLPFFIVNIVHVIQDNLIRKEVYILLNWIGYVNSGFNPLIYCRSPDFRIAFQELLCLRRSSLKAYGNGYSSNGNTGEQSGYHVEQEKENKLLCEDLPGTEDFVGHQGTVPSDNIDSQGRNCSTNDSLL
Chain of Aurora kinase A (O14965 whole entry): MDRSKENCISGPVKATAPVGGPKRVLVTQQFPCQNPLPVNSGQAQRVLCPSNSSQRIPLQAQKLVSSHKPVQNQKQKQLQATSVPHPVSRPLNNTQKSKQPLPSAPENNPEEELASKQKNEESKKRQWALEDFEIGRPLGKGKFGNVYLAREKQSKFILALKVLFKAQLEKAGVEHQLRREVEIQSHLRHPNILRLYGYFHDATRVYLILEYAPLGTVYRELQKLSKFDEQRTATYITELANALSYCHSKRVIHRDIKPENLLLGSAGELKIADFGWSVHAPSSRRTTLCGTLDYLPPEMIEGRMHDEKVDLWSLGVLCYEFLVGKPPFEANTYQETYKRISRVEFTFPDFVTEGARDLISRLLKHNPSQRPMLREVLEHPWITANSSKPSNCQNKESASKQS
Chain of DNA dC->dU-editing enzyme APOBEC-3G (Q9HC16 whole entry): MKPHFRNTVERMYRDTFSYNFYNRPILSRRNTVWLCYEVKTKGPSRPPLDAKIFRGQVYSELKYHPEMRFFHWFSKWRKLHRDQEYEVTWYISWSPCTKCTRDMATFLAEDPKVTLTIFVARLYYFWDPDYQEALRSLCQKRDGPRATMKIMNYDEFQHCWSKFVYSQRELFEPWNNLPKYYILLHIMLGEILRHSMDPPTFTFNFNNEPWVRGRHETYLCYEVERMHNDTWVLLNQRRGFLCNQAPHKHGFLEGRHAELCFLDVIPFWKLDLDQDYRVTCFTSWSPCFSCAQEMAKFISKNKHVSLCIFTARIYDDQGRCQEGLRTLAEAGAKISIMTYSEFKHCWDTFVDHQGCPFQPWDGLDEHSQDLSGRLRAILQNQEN

In the case of `CCN1CCN(c2ccc(NC(=O)c3ccc([N+](=O)[O-])o3)cc2Cl)CC1`, the EC50 [1] is reported as > 120 µM (not active), the EC50 [2] is reported as > 120 µM (not active) and the EC50 [3] is reported as > 30 µM (not active). The IC50 [4] was 15.8 µM (active), the IC50 [5] was 16.5 µM (active) and the EC50 [6] was 6.22 µM (active). The IC50 [7] was 49.2 µM (inactive), the AC50 [8] was 9.54 µM (active) and the EC50 [9] was 8.46 µM (active). For the same molecule, the EC50 [10] was 4.34 µM (active).
For `Nc1ccc(S(=O)(=O)O)c2cccc(O)c12`, the Ki [11] was 251 nM (active) and the Ki [12] was 79.4 nM (active).
In the case of `COc1ccccc1NS(=O)(=O)c1ccc2nc(S)oc2c1`, the AC50 [13] is reported as > 380 µM (inactive).
With `CC(C)CC(=O)NC(c1ccc(C(C)C)cc1)c1ccc2cccnc2c1O` (stereo not given) the IC50 [4] was 2.49 µM (active), the IC50 [5] was 7.36 µM (active) and the IC50 [7] was 18 µM (active).
In the case of `CC(SCC1CCC2CC1C2(C)C)C(N)=O` (stereo not given), the Ki [14] is reported as 100 µM (active).
With `Cn1cccc1/C=C(/C#N)C(=O)Nc1cc(Cl)ccc1N1CCOCC1` the IC50 [15] was > 99 µM (inactive) and the IC50 [16] was > 99 µM (inactive).
With `CCOc1ccc(Oc2c(Cl)cnn(Cc3cccc4ccccc34)c2=S)cc1` the IC50 [17] was 1.51 µM (active) and the IC50 [18] was 1.51 µM (active).
With `Cc1cnn(Cc2cccc3ccccc23)c(=O)c1C(C#N)c1ccccc1` (stereo not given) the IC50 [17] was 6.59 µM (active) and the IC50 [18] was 6.59 µM (active).
With `CN(C)c1ccc(/C=N/N(CCC#N)C2=NS(=O)(=O)c3ccccc32)cc1` the EC50 [19] was 42.5 µM (inactive) and the EC50 [20] was > 99 µM (inactive).
